The source of these data is patent US20190091189A1, “ADMINISTRATION OF EXOGENOUS KETONE TO LOWER BLOOD GLUCOSE” (priority 2016, published 2019).

Assay [1] in a line: Chronic feeding (83 days) of ketone supplements, blood βHB and glucose. The class given is in vivo, Sprague-Dawley rats. Conditions: SPD rats, after 83 days of chronic feeding (~25 g/kg b.w./day), compared to control. An excerpt: A total of 48 male SPD rats were fed for 83 days with either standard rodent chow (2018 Teklad Global 18% Protein Rodent Diet (#2018), Harlan) standard diet (SD)/control; n=9) or SD+ketone supplementation. Four treatment animal groups included low-dose KE (˜10 g/kg b.w./day, Low-dose ketone ester (LKE); n=10), high-dose KE (˜25 g/kg b.w./day, high dose ketone ester (HKE); n=10), KS (˜25 g/kg b.w./day, KS; n=9) and KSMCT (˜25 g/kg b.w./day, KSMCT; n=10).
(§1) In the chronic feeding study, blood βHB and glucose levels were measured 24 h before the 1st day of ketone treatments (baseline levels) and at 13th week. In the 7 day oral gavage studies, blood βHB and glucose levels were measured 24 h before the 1st day of ketone treatments (baseline levels; SPD and WAG/Rij rats), 24 h after the first gavage and 60 min after gavage on the 7th day (SPD and WAG/Rij rats). Whole blood samples (10 μL) were taken from the saphenous vein for analysis of blood glucose (mg/dl) and βHB (mmol/1) levels with the commercially available glucose and ketone (βHB) monitoring system Precision Xtra™ (Abbott Laboratories, Abbott Park, Ill., USA).

The nature of assay [2]: Sub-chronic oral gavage (7 days), blood βHB and glucose, without exercise. To be noted: SPD rats, 5 g/kg b.w./day gavage. In kind it is in vivo, Sprague-Dawley rats.
Excerpt: (§2) In order to familiarize the animals to the intragastric gavage method, water was gavaged for 5 days before ketone supplementation. Following the adaptation period to the intragastric gavage method, 39 male SPD rats were fed with standard diet, and gavaged daily with 5 g/kg b.w./day water (SD/control; n=11) or ketone supplements KE (n=9), KS (n=9), KSMCT (n=10) sub-chronically for 7 days. In addition, following the adaptation period to the intragastric gavage method, WAG/Rij male rats (n=32) were fed with SD and gavaged sub-chronically with about 2.5 g/kg b.w./day water (SD/control; n=8), KE (n=8), KS (n=8) or KSMCT (n=8) for 7 days.
as §1

Assay in assay [3]: as above
In kind it is in vivo. Conditions: WAG/Rij rats; for blood βHB: about 2.5 g/kg b.w./day, after 7 days of gavage, compared to baseline, 24 h and control.
Excerpt: as §2, §1

Assay [4] in a line: Multiple treatment (7 days) and rotarod exercise, blood βHB and glucose. The class given is in vivo, Sprague-Dawley rats. To be noted: exercised SPD rats. An excerpt: Four month old Sprague-Dawley rats were first acclimated to oral gavage with administration of tap water once daily for a period of 5 days. The rats were then divided into 5 groups, and fed either a standard diet (SD), a ketogenic diet (KD), or a standard diet supplemented with a once daily oral gavage of a ketogenic compound as outlined in Table 1. The ketogenic compound was selected from 1,3-butanediol-acetoacetate diester (SD+KE), β-hydroxybutyrate mineral salt (SD+KS), or β-hydroxybutyrate mineral salt and a medium chain triglyceride (SD+KSMCT). The above ketogenic compounds were provided at a dose of 5 g/kg of body weight.
Each group of animals was maintained on the respective dietary conditions for 7 days. Whole blood samples (10 μL) were collected from the saphenous vein of rats. The levels of blood glucose (mg/dL) and β-hydroxybutyrate (mmol/L) were measured with the commercially available glucose monitoring system PRECISION XTRA® (Abbott Laboratories, Abbott Park, Ill., USA). It is noted that the PRECISION XTRA® only measures β-hydroxybutyrate levels, therefore total blood ketone levels may be higher than measured.
Rats were exercised on a Rota Rod Rotamex 5 (Columbus Instruments). Animals were exercised on the rotarod for 5 consecutive days before treatment began in order to acclimate to the equipment and the task. The rats were placed on rods of the accelerating rotarod and the time the animals remained on the rotarod was measured. The rotarod was set to accelerate to 40 rpm in 180 seconds. Each training and testing consisted of 3 trials, with a 2 minute rest period between each trial. Animals were placed on the rotarod and timed until they fell from the rotating rod. The animals were evaluated on the rotarod exercise test after the 5 days training period but prior to the beginning of dietary treatment (baseline), 24 hours after treatment, and after 7 days of dietary treatment.
The animals were evaluated for blood levels of glucose and ketone bodies β-hydroxybutyrate), prior to the beginning of dietary treatment, 24 hours after treatment, and after 7 days of dietary treatment.
(In the rotarod test animals must keep their balance on a rotating rod.)

Assay [5] can be described thus: 10-week feeding of G1D mice, blood ketone and glucose. In kind it is in vivo. To be noted: fed for 10 weeks, 10% KE or 20% KS in standard diet, or ketogenic diet. Here is the method: GLUT1 deficiency syndrome (G1D) is characterized by impaired glucose transport in the brain and diagnosed with CSF glucose value of <2.2 mmol/L. There is no cure for G1D, but the ketogenic diet (KD) is often effective for the drug-resistant seizures and impairment of motor function associated with the disease. The effect of ketogenic compounds on blood glucose levels was assessed in glucose transporter type 1 (G1D)-deficient mice. A group of 48 G1D mice, aged 2-5 months old, were fed for 10 weeks with either a standard rodent diet (SD), a ketogenic diet (KD), a standard diet supplemented with 10% ketone ester (SD+KE) or a standard diet supplemented with 20% ketone mineral salt (SD+KS).

[6] abbreviates: 5 g/kg once daily gavage (or ketogenic diet), 24 hours after treatment.
Where [7] appears, read: 5 g/kg once daily gavage (or ketogenic diet), after 24 hours, compared to baseline.
Setting [8] is: 5 g/kg once daily gavage (or ketogenic diet), after 7 days.
Setting [9] is: 5 g/kg once daily gavage, after 7 days.

With `CC(=O)CC(=O)OCCC(C)OC(=O)CC(C)=O` (centres unmarked) [KE, 1,3-butanediol-acetoacetate diester], the “blood βHB levels” value is “significantly elevated” in assay [1] and “elevated” in assay [2] (24 h after a single gavage, compared to control). The blood glucose levels result in assay [2] (at 24 h, compared to control) is reported as “lower”. Besides, the glucose levels result in assay [3] (about 2.5 g/kg b.w./day gavage, after 24 h, compared to baseline and control group) is given as “lower”. For the same compound, the “blood βHB” value in assay [3] is listed as “elevated”. Also, the “blood βHB after exercise” value in assay [4] (setting [6]) is given as “elevated levels”; in assay [4] (setting [8]) it was “trend towards baseline levels”. Besides, the “blood glucose levels after exercise” value in assay [4] (setting [7]) was “reduce blood glucose levels”; in assay [4] (setting [9]), “trended towards baseline”. For the same compound, the blood glucose level result in assay [5] was “quickly dropped and remained the lowest”. Besides, in assay [5], the blood ketone level entry is “slow and slight elevation”.

As to “Na^+/K^+-β-hydroxybutyrate mineral salt [KS]”, the “blood βHB levels” value in assay [1] is on record as “significantly elevated”. Further, the “blood βHB” value in assay [2] (7 days, compared to control group) is recorded as “elevated”; in assay [3], “elevated”. The “blood βHB after exercise” value was “no change” in assay [4] (setting [6]) and “significant increase” in assay [4] (setting [8]). The “blood glucose levels after exercise” value was “increase” in assay [4] (setting [7]) and “decline towards baseline” in assay [4] (setting [9]). The blood glucose level result in assay [5] is “early decrease”. Further, in assay [5], the blood ketone level entry is “significant and rapid elevation”.
